One assay deals with LXFL 1121. The assay can be described thus: Cytotoxicity, propidium iodide based monolayer assay, LXFL 1121. Conditions: 96 h; LXFL 1121 (lung large cell carcinoma), four days of treatment, T/C=50%; read-out: Absolute IC50. On the procedure:
(§1) The cytotoxicity was tested for compounds of the invention on five different cell-lines, namely LXFL 1121, MAXF 401, MMXF L-636, PRXF PC-3M and UXF 1138 which are respectively lung large cell carcinoma, breast adeno carcinoma, multiple myeloma, prostate adeno carcinoma and uterine sarcoma.
(§2) A working stock solution of the test compounds was prepared in DMSO at a concentration of 33 mM or 8.25 mM, and small aliquots were stored at −20° C. On each day of an experiment, a frozen aliquot of the working stock solution was thawed and stored at room temperature prior to and during treatment.
(§3) All liquid handling steps were performed using the Tecan Freedom EVO 200 platform. First, serial 2-fold dilutions of the 33 mM DMSO working stock solution were done in DMSO. […]
(§4) A modified propidium iodide (PI) based monolayer assay was used to assess the anti-cancer activity of the compounds. Briefly, cells were harvested from exponential phase cultures, counted and plated in 96 well flat-bottom microtiter plates at a cell density of 4,000 to 40,000 cells/well dependent on the cell line's growth rate. […] After an incubation period of 1-2 hours at room temperature, fluorescence (FU) was measured using the Enspire Multimode Plate Reader (excitation λ=530 nm, emission λ=620 nm) to quantify the amount of attached viable cells. […]

The test system of a further assay is MAXF 401. The assay can be described thus: Cytotoxicity, propidium iodide based monolayer assay, MAXF 401. Type of assay: cell-based. Particulars: Homo sapiens, MAXF401, 96 h; MAXF 401 (breast adeno carcinoma), four days of treatment, T/C=50%; read-out: Absolute IC50. The protocol:
as §1, §2, §3, §4

A further assay relates to NFκB. The assay can be described thus: NFκB reporter assay (NanoLuciferase) in A549 cells, TNFα stimulation. Conditions: Homo sapiens, 4 ng/ml TNFα, 6 hours. Type of assay: cell-based. An excerpt:
Compounds of the present invention have been tested for their capacity to inhibit NFκB.
The NFκB reporter construct was made by cloning 5 NFκB responsive elements upstream of a NanoLuciferase reporter gene flanked by AAVS1 genomic sequences.
NFκB Responsive element fused with NanoLuciferase and SV40 late Poly(A) signal was amplified from pNL3.2-NFκB-Nluc (Promega) using NFKB-NLUC-F and NFKB-NLUC-R primers and inserted by Infusion (TaKaRa) in AAVS1 SA-2A-puro-pA donor plasmid (Hockemeyer et al, Nat Biotechnol. 2009, 27, 851-7) digested by Sal1. pCRISPR AAVS1-T2 expressing a guide RNA (gRNA) to target human AAVS1 (T2 target sequence) was constructed by inserting AAVS1-T2A hybridized primers in pLentiCRISPR v2-blast (Sanjana et al, Nat Methods. 2014, 11, 783-4) digested by Bsmb1.
A549 cells were transfected by the plasmids and puromycine selected for 5 days (1 μg mL-1). Then clones were obtained by limiting dilution and selected to maximize TNFα dependent NFkB-NanoLuciferase induction.
The reporter cells were seeded on a 96-well plate for overnight with DMEM including 10% FBS. Test compounds were added at varying concentrations. The cells then were treated with 4 ng/ml TNFα (Peprotech, ref E251) in DMEM+10% FBS. NanoGlo luciferase assay (Promega) was carried out 6 hours later. Luminescence was measured using a Spark 20M spectrofluorimeter (Tecan). Values were normalized to the luminescence measured in untreated cells.
A general note: Reporter assays use an easily measured gene product as a stand-in for the process of interest.

What is called IC50 is the point on the concentration scale where inhibition reaches its midpoint. The EC50 is the concentration giving half of the maximal effect. Read a low EC50 as higher potency in that assay. As for `O=C(Nc1scc(C2CCc3ccccc3C2)c1C(=O)O)c1ccccc1` (stereo not drawn) [#16], the IC50 in the assay with LXFL 1121 was determined as 878 nM; in the assay with MAXF 401 it was 507 nM. Also, it took 80 nM to reach a half-maximal effect in the assay with NFκB (EC50).

The values above are taken from patent US11767316B2, “Non-fused thiophene derivatives and their uses” (ENYO PHARMA, priority 2018, dated 2023).
